Assay results published in patent US20110124588A1, “SYNERGISTIC ACTIVE INGREDIENT COMBINATIONS” (Bayer Cropscience AG, priority 2008, published 2011).
Where two headings read alike, the source gives them in different places.

What was measured:
[1] = test system: Spodoptera frugiperda; assay: Spodoptera frugiperda larvae test (sprayed cabbage leaves); format: in vivo, army worm (Spodoptera frugiperda) larvae
Excerpt: (§1) The expected activity of a given combination of two active compounds can be calculated as follows, according to S. R. Colby, Weeds 15 (1967), 20-22:
(§2) X is the kill rate, expressed as a percentage of the untreated control, when employing active compound A at an application rate of m g/ha or in a concentration of m ppm, Y is the kill rate, expressed as a percentage of the untreated control, when employing active compound B at an application rate of n g/ha or in a concentration of n ppm and E is the kill rate, expressed as a percentage of the untreated control, when employing active compounds A and B at application rates of m and n g/ha or in a concentration of m and n ppm, then
(§3) If the actual kill rate exceeds the calculated value, the kill of the combination is superadditive, i.e. a synergistic effect is present. In this case, the actually observed kill rate must exceed the value calculated using the above formula for the expected kill rate (E).
(§4) solvents: 78 parts by weight of acetone • • 1.5 parts by weight of dimethylformamide emulsifier: 0.5 part by weight of alkylaryl polyglycol ether
(§5) To produce a suitable preparation of active compound, 1 part by weight of active compound is mixed with the stated amounts of solvents and emulsifier, and the concentrate is diluted with emulsifier-containing water to the desired concentration.
Cabbage leaves (Brassica oleracea) are treated by spraying with the active compound preparation of the desired concentration and are populated with larvae of the army worm (Spodoptera frugiperda) while the leaves are still moist.
After the desired period of time, the kill in % is determined 100% means that all caterpillars have been killed; 0% means that none of the caterpillars have been killed. The kill rates determined are entered into Colby's formula.

[2] = test system: Phaedon cochleariae; assay: Phaedon cochleariae larvae test (sprayed cabbage leaves); format: in vivo, mustard beetle (Phaedon cochleariae) larvae
Method: as §3
Solvents: 78 parts by weight of acetone • • 1.5 parts by weight of dimethylformamide Emulsifier: 0.5 part by weight of alkylaryl polyglycol ether
After the desired period of time, the kill in % is determined 100% means that all beetle larvae have been killed; 0% means that none of the beetle larvae have been killed. The kill rates determined are entered into Colby's formula.

[3] = test system: Tetranychus urticae; assay: Tetranychus urticae test (OP-resistant/spray treatment); format: in vivo, greenhouse red spider mite (Tetranychus urticae); conditions: Tetranychus urticae, 144 h; single active compound, 0.8 g/ha, after 6 d; read-out: Kill in % after 6 d
Excerpt: as §1, §2, §3, §4, §5
Discs of bean leaves (Phaseolus vulgaris) which are infested by all stages of the greenhouse red spider mite (Tetranychus urticae) are sprayed with an active compound preparation of the desired concentration.
After the desired period of time, the activity in % is determined 100% means that all spider mites have been killed; 0% means that none of the spider mites have been killed.

[4] = test system: Myzus persicae; assay: Myzus persicae test (spray treatment of infested cabbage leaves); format: in vivo, green peach aphid (Myzus persicae)
Method: as §3, §4
After the desired period of time, the kill in % is determined 100% means that all aphids have been killed; 0% means that none of the aphids have been killed. The kill rates determined are entered into Colby's formula.

[5] = single active compound, 0.8 g/ha, 6 d
[6] = Myzus persicae, 144 h, read-out: Kill in % after 6 d
[7] = single active compound, 0.8 g/ha, 2 d
[8] = Phaedon cochleariae, 144 h, single active compound, 100 g/ha, 6 d, read-out: Kill in % after 6 d
[9] = Myzus persicae, 24 h, read-out: Kill in % after 1 d

How did the pest or weed control at 4 g/ha ([1]; Spodoptera frugiperda, 144 h, single active compound, 4 g/ha, 6 d, read-out: Kill in % after 6 d) turn out when `N#Cc1ccc(CC(=NNC(=O)Nc2ccc(OC(F)(F)F)cc2)c2cccc(C(F)(F)F)c2)cc1` (mixture of isomers) [metaflumizone] was run?
The pest or weed control at 4 g/ha was 0%.

`CN1CN(C)/C(=N\[N+](=O)[O-])N(Cc2cnc(Cl)s2)C1` [AKD 1022] was tested. Which “Kill in % after 6 d” value [2, 5] did it give?
Its value is 0%.

How did the pest or weed control at 0.8 g/ha [3] turn out when `Cc1cc(C)c([S+]([O-])CC(F)(F)F)cc1-n1cnc(C(F)(F)F)n1` (stereo not shown) [II-29-31, 1-{2,4-dimethyl-5-[(2,2,2-trifluoroethyl)sulphinyl]phenyl}-3-(trifluoromethyl)-1H-1,2,4-triazole] was run?
Its pest or weed control at 0.8 g/ha is 60%.

With `CNC(=O)c1cc(Cl)cc(C)c1NC(=O)c1cc(Br)nn1-c1ncccc1Cl` [Rynaxapyr, Chlorantraniliprole] as the compound, how does the pest or weed control at 0.16 g/ha ([1]; Spodoptera frugiperda, 48 h, read-out: Kill in % after 2 d) read?
Its pest or weed control at 0.16 g/ha is 33%.

What about the pest or weed control at 0.032 g/ha [4, 6] of the same compound?
The pest or weed control at 0.032 g/ha was 0%.

Which pest or weed control at 100 g/ha ([2]; Phaedon cochleariae, 144 h, read-out: Kill in % after 6 d) does the source give for `COP(=O)(NC(C)=O)SC` (stereo not shown) [acephate] here?
Its pest or weed control at 100 g/ha is 0%.

With `C/C(=N\C#N)N(C)Cc1ccc(Cl)nc1` [acetamiprid] as the compound, how does the pest or weed control at 0.032 g/ha [4, 6] read?
Its pest or weed control at 0.032 g/ha is 0%.

What does the source list for `CC1(C)C(C=C(Cl)Cl)C1C(=O)OC(C#N)c1cccc(Oc2ccccc2)c1` (stereo not drawn) [alpha-cypermethrin]?
pest or weed control at 0.16 g/ha ([2]; Phaedon cochleariae, 144 h, single active compound, 6 d, read-out: Kill in % after 6 d): 0%; Kill in % after 2 d [2, 7]: 0%; pest or weed control at 0.0064 g/ha [4, 6]: 0%

For `CC(C)N1C(=O)N(c2ccccc2)CS/C1=N\C(C)(C)C` [buprofezin], which pest or weed control at 100 g/ha [2, 8] is on record?
The pest or weed control at 100 g/ha was 0%.

And the pest or weed control at 4 g/ha [4, 9]?
The pest or weed control at 4 g/ha was 0%.

Which “Kill in % after 6 d” value ([1]; single active compound, 4 g/ha, 6 d) does the source give for `CCOP(=S)(OCC)Oc1nc(Cl)c(Cl)cc1Cl` [chlorpyrifos] here?
The value was 33%.

What about the “Kill in % after 6 d” value ([4]; single active compound, 0.16 g/ha, 6 d) of the same compound?
The value was 0%.

And the “Kill in % after 6 d” value [4, 5]?
Its value is 0%.

`CN/C(=N\[N+](=O)[O-])NCc1cnc(Cl)s1` [clothianidin] was tested. Which pest or weed control at 4 g/ha ([2]; Phaedon cochleariae, 144 h, single active compound, 4 g/ha, 6 d, read-out: Kill in % after 6 d) did it give?
The pest or weed control at 4 g/ha was 50%.

And the pest or weed control at 0.16 g/ha [4, 6]?
The pest or weed control at 0.16 g/ha was 40%.

What does the source list for `Cc1cc(C(F)(C(F)(F)F)C(F)(F)F)ccc1NC(=O)c1cccc(Cl)c1C(=O)N[C@@H](C)CS(C)(=O)=O` [compound II-28-2]?
pest or weed control at 0.16 g/ha ([1]; Spodoptera frugiperda, 144 h, single active compound, 0.16 g/ha, 6 d, read-out: Kill in % after 6 d): 50%; pest or weed control at 0.8 g/ha ([2]; Phaedon cochleariae, 144 h, single active compound, 0.8 g/ha, 6 d, read-out: Kill in % after 6 d): 0%; pest or weed control at 0.032 g/ha ([4]; Myzus persicae, 144 h, single active compound, 0.032 g/ha, 6 d, read-out: Kill in % after 6 d): 0%

For `CN(Cc1ccc(Cl)nc1)C1=CC(=O)OC1` [compound II-29-28, 4-{[(6-chloropyrid-3-yl)methyl](methyl)amino}furan-2(5H)-one], which pest or weed control at 0.16 g/ha ([4]; Myzus persicae, 144 h, single active compound, 0.16 g/ha, 6 d, read-out: Kill in % after 6 d) is on record?
The pest or weed control at 0.16 g/ha was 0%.

Which pest or weed control at 100 g/ha [2, 8] does the source give for `O=C1C=C(N(Cc2ccc(Cl)nc2)CC(F)F)CO1` [compound II-29-29, 4-{[(6-chloropyrid-3-yl)methyl](2,2-difluoroethyl)amino}furan-2(5H)-one] here?
Its pest or weed control at 100 g/ha is 67%.

What about the pest or weed control at 0.8 g/ha [4, 6] of the same compound?
Its pest or weed control at 0.8 g/ha is 50%.

How did the pest or weed control at 0.16 g/ha ([2]; Phaedon cochleariae, 48 h, single active compound, 2 d, read-out: Kill in % after 2 d) turn out when `CNC(=O)c1cc(C#N)cc(C)c1NC(=O)c1cc(Br)nn1-c1ncccc1Cl` [cyazypyr, Cyantraniliprole] was run?
The pest or weed control at 0.16 g/ha was 17%.

And the pest or weed control at 0.16 g/ha [4, 9]?
Its pest or weed control at 0.16 g/ha is 0%.

Which pest or weed control at 0.8 g/ha ([1]; Spodoptera frugiperda, 144 h, read-out: Kill in % after 6 d) does the source give for `CC1(C)C(C=C(Cl)Cl)C1C(=O)OC(C#N)c1cccc(Oc2ccccc2)c1` (stereo not shown) [cypermethrin] here?
Its pest or weed control at 0.8 g/ha is 50%.

And the “Kill in % after 2 d” value [2, 7]?
Its value is 50%.

And the pest or weed control at 0.032 g/ha [4, 6]?
The pest or weed control at 0.032 g/ha was 0%.

What about the pest or weed control at 0.16 g/ha [4, 6] of the same compound?
The pest or weed control at 0.16 g/ha was 0%.

Which pest or weed control at 20 g/ha ([2]; Phaedon cochleariae, 144 h, single active compound, 20 g/ha, 6 d, read-out: Kill in % after 6 d) does the source give for `Nc1nc(N)nc(NC2CC2)n1` [cyromazine] here?
The pest or weed control at 20 g/ha was 0%.

What about the pest or weed control at 0.16 g/ha [4, 6] of the same compound?
The pest or weed control at 0.16 g/ha was 0%.

What about the pest or weed control at 0.8 g/ha [4, 6] of the same compound?
The pest or weed control at 0.8 g/ha was 0%.

`CC[S+]([O-])c1c(C#N)nn(-c2c(Cl)cc(C(F)(F)F)cc2Cl)c1N` (stereo not shown) [ethiprole] was tested. Which pest or weed control at 0.8 g/ha [4, 6] did it give?
Its pest or weed control at 0.8 g/ha is 0%.

For `N#Cc1nn(-c2c(Cl)cc(C(F)(F)F)cc2Cl)c(N)c1[S+]([O-])C(F)(F)F` (stereo not shown) [fipronil], which pest or weed control at 0.8 g/ha [4, 6] is on record?
Its pest or weed control at 0.8 g/ha is 0%.
